The results in this text go back to article PMC10497752, “Heparins are potent inhibitors of ectonucleotide pyrophosphatase/phospho-diesterase-1 (NPP1) – a promising target for the immunotherapy of cancer” (Frontiers in Immunology, 2023).

For orientation: Km means the concentration of substrate that gives half-maximal velocity.

The test has as its system ectonucleotidases expressed in U87 cell membrane preparations. As to the kind of experiment: Enzymatic assay on U87 cell membrane preparations (adenosine formation, CE). Type of test: biochemical, human. The settings on record: 10 µg, 30 min 37°C, substrate 6 to 500 µM. As for the experimental part: U87 glioblastoma cells were grown in cell culture dishes until reaching a fully covered confluent cell layer. Cells were cultivated at 37°C and 5% CO2 in DMEM with additions of 10% FCS, 1% penicillin/streptomycin (P/S) mixture and 1% L-glutamine. When confluent, the cell culture media was carefully removed and cells were frozen at -20°C overnight. The cells were then scraped off with a cell scraper using 2-3 mL of buffer (5 mM Tris, 2 mM EDTA, pH 7.4), homogenized and centrifuged for 10 min at 1000 g. The supernatant was collected and centrifuged for 60 min at 48000 g and 4°C. The pellet was then resuspended twice with Tris buffer, pH 7.4, followed by vortexing and centrifugation. The whole procedure was performed on ice. Finally, the pellet was resuspended and homogenized. A protein concentration of 1.5 mg/mL was determined with the Bradford method ([35]), and the protein was kept at -20°C until used. The enzymatic assay was performed by incubating the membrane preparation and the substrate at 37°C and 500 rpm for 30 min, followed by heat inactivation at 95°C for 5 min. For the determination of kinetic parameters, several substrate concentrations (from 6 to 500 µM of ATP or AMP) were utilized and incubated with 10 µg of membrane preparation for 30 min at 37°C, followed by heat inactivation. Capillary electrophoresis (CE) was used for analysis and quantification of the enzymatic product according to published procedures ([11], [36]). For the determination of the enzymatic activity 400 µM of ATP were employed, and three different amounts of membrane preparation (6, 10 and 30 µg of protein) were utilized. A positive control using the known NPP1 inhibitor PSB-POM-141 (20 µM) was performed ([19]). Data were obtained from three independent experiments each in duplicate measurements. […] Controls were run in parallel.

`Nc1ncnc2c1ncn2[C@@H]1O[C@H](COP(=O)(O)O)[C@@H](O)[C@H]1O` [AMP]: the Km worked out at 38 µM.

Take `Nc1ncnc2c1ncn2[C@@H]1O[C@H](COP(=O)(O)OP(=O)(O)OP(=O)(O)O)[C@@H](O)[C@H]1O` [ATP]: the Km was 83 µM.
